Data from patent US8686001B2, “Medicament for treating glaucoma comprising as an active ingredient cyclodextrin-clathrate compound of cilostazol” (Otsuka Pharmaceutical Co., Ltd., priority 2007, dated 2014).

What was measured:
[1] = Comparative experiment of manufacturing method: solubility of cilostazol in HP-β-CD, dissolving method (1) vs (2); format: physicochemical
Procedure: To cilostazol suspension (0.5%, suspended in physiological saline) was added HP-β-CD powder so that the final concentration of the HP-β-CD should be 5-20%, and the mixture was completely dissolved (the procedure is termed as “dissolving method (1)”). On the contrary, to HP-β-CD solution (5-20%, dissolved in physiological saline) was added cilostazol powder (final concentration: 0.5%), and the mixture was completely dissolved (the procedure is termed as “dissolving method (2)”). Both the above solutions were stirred at 25° C. for 24 hours under the shade, then filtrated with membrane filter (pore size: 0.2 μm), and compared about the solubility of the solutions. […] Actually, it needed 10 minutes' stirring for the solution derived from dissolving method (1) to reach the state of the dissolution curve shown in FIG. 1. […] (The above concentrations are shown as weight/volume %.)

[2] = Dissolution experiment of cilostazol nano (nano-CLZ) in HP-β-CD, dissolving method (1) vs (2); format: physicochemical
Procedure: CLZ and an excipient were mixed in a ratio of about 80%:20% to give a nano-CLZ powder. To a nano-CLZ suspension (0.5% CLZ suspension: which was prepared by suspending 120 mg of the nano-CLZ powder in 20 mL of purified water), HP-β-CD powder was added and the mixture was dissolved so that the final concentration of HP-β-CD should be 5-20% (dissolving method (1)); while 120 mg of the nano-CLZ powder was added to a HP-β-CD solution (which was prepared by dissolving HP-β-CD in purified water so that the final concentration of HP-β-CD should be 5-20%), and the mixture was dissolved (the final concentration of CLZ is 0.5%) (dissolving method (2)). Both the above solutions were stirred at 25° C. for 24 hours under the shade, then filtrated with membrane filter (pore size: 0.2 μm), and compared about the solubility of the solutions.
Actually, it needed 30 minutes' stirring for the solution derived from dissolving method (1) to reach the state of the dissolution curve shown in FIG. 2. […] (The above concentrations are shown as weight/volume %.)

O=C1CCc2cc(OCCCCc3nnnn3C3CCCCC3)ccc2N1 [cilostazol, 6-[4-(1-cyclohexyl-1H-tetrazol-5-yl)butoxy]-3,4-dihydrocarbostyril]
solubility of cilostazol, dissolving method (1) compared with dissolving method (2) ([1]; 0.5% cilostazol, 5-20% HP-β-CD in physiological saline, stirred 25° C. 24 hours under the shade, 0.2 μm filtrate, FIG. 1): tended to increase more
stirring needed to reach the state of the dissolution curve ([1]; dissolving method (1): HP-β-CD powder added to cilostazol suspension, FIG. 1): 10 min
solubility after 10 minutes stirring relative to the solubility shown in FIG. 1 ([1]; dissolving method (2): cilostazol powder added to HP-β-CD solution): one fifth or less
solubility of cilostazol, dissolving method (1) compared with dissolving method (2) ([2]; nano-CLZ powder, 0.5% CLZ, 5-20% HP-β-CD in purified water, stirred 25° C. 24 hours under the shade, 0.2 μm filtrate, FIG. 2): tended to increase more
stirring needed to reach the state of the dissolution curve ([2]; nano-CLZ, dissolving method (1), FIG. 2): 30 min
solubility after 30 minutes stirring relative to the solubility shown in FIG. 2 ([2]; nano-CLZ, dissolving method (2)): half or less
